As usually defined, the IC50 is the concentration at which inhibition is half-maximal.

Activity calls are given as the source filed them. The rule behind the calls is not given here.

In one data set the target is T1, Mineralocorticoid receptor (Homo sapiens) (UniProt P08235).
T1 sequence (whole entry): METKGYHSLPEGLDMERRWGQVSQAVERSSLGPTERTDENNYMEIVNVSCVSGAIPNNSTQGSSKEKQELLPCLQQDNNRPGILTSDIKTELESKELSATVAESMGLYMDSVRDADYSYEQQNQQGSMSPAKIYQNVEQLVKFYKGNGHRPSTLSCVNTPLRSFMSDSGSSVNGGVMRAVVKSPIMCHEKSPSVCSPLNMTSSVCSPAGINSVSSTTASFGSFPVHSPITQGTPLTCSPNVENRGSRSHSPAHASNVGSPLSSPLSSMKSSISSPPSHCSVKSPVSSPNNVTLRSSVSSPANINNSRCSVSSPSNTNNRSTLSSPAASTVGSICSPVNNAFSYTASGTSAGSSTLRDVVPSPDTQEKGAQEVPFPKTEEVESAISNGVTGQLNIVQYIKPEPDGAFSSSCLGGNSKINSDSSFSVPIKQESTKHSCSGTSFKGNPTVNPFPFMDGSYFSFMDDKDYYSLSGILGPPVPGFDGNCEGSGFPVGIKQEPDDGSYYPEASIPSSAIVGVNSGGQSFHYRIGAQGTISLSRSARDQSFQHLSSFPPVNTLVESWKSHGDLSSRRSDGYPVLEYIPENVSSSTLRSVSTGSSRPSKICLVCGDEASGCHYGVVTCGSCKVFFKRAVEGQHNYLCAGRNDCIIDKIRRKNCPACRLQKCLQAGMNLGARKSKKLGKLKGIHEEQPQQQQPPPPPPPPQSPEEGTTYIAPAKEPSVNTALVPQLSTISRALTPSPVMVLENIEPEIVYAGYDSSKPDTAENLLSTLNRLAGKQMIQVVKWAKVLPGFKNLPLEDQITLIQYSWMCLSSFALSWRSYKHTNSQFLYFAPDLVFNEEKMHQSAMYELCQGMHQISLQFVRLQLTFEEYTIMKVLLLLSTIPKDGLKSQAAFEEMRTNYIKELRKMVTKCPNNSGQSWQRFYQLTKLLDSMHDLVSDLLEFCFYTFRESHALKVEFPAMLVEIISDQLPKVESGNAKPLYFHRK
Kind of data set: Agonist activity at human mineralocorticoid receptor by cell-based assay.
Conditions: not given
With `C[C@H](c1ccc(F)cc1)N1C(=O)O[C@](Cc2ccccc2)(c2nc3cc(-c4ccncc4)ccc3[nH]2)C1=O`, the result was inactive.

Consider `C[C@H](c1ccc(F)cc1)N1C(=O)O[C@](Cc2ccccc2)(c2nc3cc(-c4cnn(C)c4)ccc3[nH]2)C1=O`, for which the outcome was inactive.

Regarding `C[C@H](c1ccc(F)cc1)N1C(=O)O[C@](Cc2ccccc2)(c2nc3cc(-n4cnnn4)ccc3[nH]2)C1=O`, the outcome was inactive.

For the compound `C[C@H](c1ccc(F)cc1)N1C(=O)O[C@](Cc2ccccc2)(c2nc3cc(-c4cn[nH]c4)ccc3[nH]2)C1=O`, the result was inactive.

Another data set concerns the target T2, Mineralocorticoid receptor (Homo sapiens, UniProt P08235).
T2 sequence (P08235 whole entry): T1 sequence (whole entry)
Kind of data set: Antagonist activity at human mineralocorticoid receptor overexpressed in CHOK1 cells assessed as inhibition of aldosterone-induced protein interaction with coactivator peptide after 6 hrs by luminescence assay. Type of data set: cell-based, CHO-K1.
Conditions: not given
As to `C[C@H](c1ccc(F)cc1)N1C(=O)O[C@](Cc2ccccc2)(c2nc3cc(-c4ccncc4)ccc3[nH]2)C1=O`, the IC50 worked out at 36 nM.

As to `C[C@H](c1ccc(F)cc1)N1C(=O)O[C@](Cc2ccccc2)(c2nc3cc(-c4cnn(C)c4)ccc3[nH]2)C1=O`, the IC50 is 33 nM.

In the case of `C[C@H](c1ccc(F)cc1)N1C(=O)O[C@](Cc2ccccc2)(c2nc3cc(-n4cnnn4)ccc3[nH]2)C1=O`, the IC50 is 120 nM.

With `C[C@H](c1ccc(F)cc1)N1C(=O)O[C@](Cc2ccccc2)(c2nc3cc(-c4cn[nH]c4)ccc3[nH]2)C1=O`, the IC50 came to 42 nM.

Test system in a further data set: not listed separately
Kind of data set: Metabolic stability in human liver microsomes assessed as compound remaining at 1 uM after 0.5 hrs. The format is ADME. The note with it: read-out: Stability.
For the compound `C[C@H](c1ccc(F)cc1)N1C(=O)O[C@](Cc2ccccc2)(c2nc3cc(-c4ccncc4)ccc3[nH]2)C1=O`, the remaining at 0.5 h, 1 µM turned out to be 68%.

As for `C[C@H](c1ccc(F)cc1)N1C(=O)O[C@](Cc2ccccc2)(c2nc3cc(-c4cnn(C)c4)ccc3[nH]2)C1=O`, the remaining at 0.5 h, 1 µM worked out at 72%.

As for `C[C@H](c1ccc(F)cc1)N1C(=O)O[C@](Cc2ccccc2)(c2nc3cc(-n4cnnn4)ccc3[nH]2)C1=O`, the remaining at 0.5 h, 1 µM is 86%.

Take `C[C@H](c1ccc(F)cc1)N1C(=O)O[C@](Cc2ccccc2)(c2nc3cc(-c4cn[nH]c4)ccc3[nH]2)C1=O`: the remaining at 0.5 h, 1 µM came out at 97%.

A further data set has as its target T3, Progesterone receptor (Homo sapiens) (UniProt P06401).
T3 sequence (whole entry): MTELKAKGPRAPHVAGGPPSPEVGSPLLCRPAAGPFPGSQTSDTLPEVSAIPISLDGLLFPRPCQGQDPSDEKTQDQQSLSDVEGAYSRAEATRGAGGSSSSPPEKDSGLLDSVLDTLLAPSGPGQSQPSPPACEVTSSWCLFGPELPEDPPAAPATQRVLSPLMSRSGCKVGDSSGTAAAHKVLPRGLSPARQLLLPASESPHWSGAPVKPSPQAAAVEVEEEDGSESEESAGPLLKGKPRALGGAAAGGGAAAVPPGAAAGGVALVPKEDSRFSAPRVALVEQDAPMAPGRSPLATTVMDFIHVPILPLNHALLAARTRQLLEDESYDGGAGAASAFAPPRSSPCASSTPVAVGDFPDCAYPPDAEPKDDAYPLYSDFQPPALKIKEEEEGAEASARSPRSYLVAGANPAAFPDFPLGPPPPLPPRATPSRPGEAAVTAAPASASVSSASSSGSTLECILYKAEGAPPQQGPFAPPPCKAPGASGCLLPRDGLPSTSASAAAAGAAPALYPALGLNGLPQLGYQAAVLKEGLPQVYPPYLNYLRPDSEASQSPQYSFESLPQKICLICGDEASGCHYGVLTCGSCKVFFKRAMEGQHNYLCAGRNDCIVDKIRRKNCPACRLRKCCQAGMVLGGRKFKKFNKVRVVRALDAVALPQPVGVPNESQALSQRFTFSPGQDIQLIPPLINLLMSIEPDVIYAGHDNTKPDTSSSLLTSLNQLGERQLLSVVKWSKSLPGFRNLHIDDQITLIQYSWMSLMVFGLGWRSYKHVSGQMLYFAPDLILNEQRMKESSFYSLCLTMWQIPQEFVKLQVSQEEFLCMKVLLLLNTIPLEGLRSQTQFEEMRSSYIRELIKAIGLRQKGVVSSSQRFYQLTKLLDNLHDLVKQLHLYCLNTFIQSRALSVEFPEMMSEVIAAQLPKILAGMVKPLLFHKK
Kind of data set: Agonist activity at human progesterone receptor beta by cell-based assay.
Conditions: not given
With `C[C@H](c1ccc(F)cc1)N1C(=O)O[C@](Cc2ccccc2)(c2nc3cc(-c4ccncc4)ccc3[nH]2)C1=O`, the result was inactive.

On to `C[C@H](c1ccc(F)cc1)N1C(=O)O[C@](Cc2ccccc2)(c2nc3cc(-c4cnn(C)c4)ccc3[nH]2)C1=O`, for which the result was inactive.

With `C[C@H](c1ccc(F)cc1)N1C(=O)O[C@](Cc2ccccc2)(c2nc3cc(-n4cnnn4)ccc3[nH]2)C1=O`, the result was inactive.

Take `C[C@H](c1ccc(F)cc1)N1C(=O)O[C@](Cc2ccccc2)(c2nc3cc(-c4cn[nH]c4)ccc3[nH]2)C1=O`: the result was inactive.

Test system in a further data set: not listed separately
Kind of data set: Metabolic stability in rat liver microsomes assessed as compound remaining at 1 uM after 0.5 hrs. The format is ADME. The note with it: read-out: Stability.
As for `C[C@H](c1ccc(F)cc1)N1C(=O)O[C@](Cc2ccccc2)(c2nc3cc(-c4ccncc4)ccc3[nH]2)C1=O`, the remaining at 0.5 h, 1 µM was determined as 23%.

Turning to `C[C@H](c1ccc(F)cc1)N1C(=O)O[C@](Cc2ccccc2)(c2nc3cc(-c4cnn(C)c4)ccc3[nH]2)C1=O`, the remaining at 0.5 h, 1 µM came out at 26%.

`C[C@H](c1ccc(F)cc1)N1C(=O)O[C@](Cc2ccccc2)(c2nc3cc(-n4cnnn4)ccc3[nH]2)C1=O`: the remaining at 0.5 h, 1 µM was found to be 64%.

As for `C[C@H](c1ccc(F)cc1)N1C(=O)O[C@](Cc2ccccc2)(c2nc3cc(-c4cn[nH]c4)ccc3[nH]2)C1=O`, the remaining at 0.5 h, 1 µM amounted to 63%.

Another data set addresses T4, Estrogen receptor (Homo sapiens) (UniProt P03372).
T4 sequence (whole entry): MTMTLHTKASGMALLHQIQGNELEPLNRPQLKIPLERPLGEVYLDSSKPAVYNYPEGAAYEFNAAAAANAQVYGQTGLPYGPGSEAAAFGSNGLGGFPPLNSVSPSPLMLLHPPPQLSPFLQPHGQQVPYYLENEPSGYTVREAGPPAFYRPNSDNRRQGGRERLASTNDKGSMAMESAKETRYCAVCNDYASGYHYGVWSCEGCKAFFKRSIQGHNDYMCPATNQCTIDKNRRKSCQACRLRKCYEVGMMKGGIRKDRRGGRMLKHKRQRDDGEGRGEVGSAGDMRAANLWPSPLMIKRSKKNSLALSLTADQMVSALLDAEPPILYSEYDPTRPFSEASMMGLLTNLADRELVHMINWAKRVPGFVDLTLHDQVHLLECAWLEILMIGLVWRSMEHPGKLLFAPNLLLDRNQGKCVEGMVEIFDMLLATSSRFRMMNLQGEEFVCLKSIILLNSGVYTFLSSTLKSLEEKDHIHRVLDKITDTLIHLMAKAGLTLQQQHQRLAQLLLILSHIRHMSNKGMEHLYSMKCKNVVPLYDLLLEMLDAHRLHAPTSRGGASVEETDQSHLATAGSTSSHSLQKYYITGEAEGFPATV
Kind of data set: Agonist activity at human estrogen receptor alpha by cell-based assay.
Conditions: not given
Regarding `C[C@H](c1ccc(F)cc1)N1C(=O)O[C@](Cc2ccccc2)(c2nc3cc(-c4ccncc4)ccc3[nH]2)C1=O`, the result was inactive.

Turning to `C[C@H](c1ccc(F)cc1)N1C(=O)O[C@](Cc2ccccc2)(c2nc3cc(-c4cnn(C)c4)ccc3[nH]2)C1=O`, the result was inactive.

`C[C@H](c1ccc(F)cc1)N1C(=O)O[C@](Cc2ccccc2)(c2nc3cc(-n4cnnn4)ccc3[nH]2)C1=O`: the result was inactive.

As to `C[C@H](c1ccc(F)cc1)N1C(=O)O[C@](Cc2ccccc2)(c2nc3cc(-c4cn[nH]c4)ccc3[nH]2)C1=O`, the outcome was inactive.

These data come from ChEMBL document CHEMBL3576820, “Discovery of benzimidazole oxazolidinediones as novel and selective nonsteroidal mineralocorticoid receptor antagonists” (ACS Med Chem Lett, 2015).
